What all share (format): in vivo
The test system of data set [1] is Triticum aestivum. Put plainly: Example C: selectivity test in major crops, post-emergence application. Particulars: crop (Blé), dose 4 kg/ha, 24 days, score 0-5, 0 or 1 = selective. From the text: (§1) Dans des pots de 7 x 7 x 8 cm remplis de terre agricole légère, on sème un nombre de graines déterminé en fonction de l'espèce végétale et de la grosseur de la graine.
(§2) On recouvre ensuite les graines d'une couche de terre d'environ 3 mm d'épaisseur et on laisse germer la graine jusqu'à ce qu'elle donne naissance à une plantule au stade convenable. Le stade de traitement pour les graminées est le stade "deuxième feuille en formation". Le stade de traitement pour les dicotylédones, est le stade "cotylédons étalés, première feuille vraie en développement".
(§3) Les pots sont alors traités par pulvérisation de bouillie en quantité correspondant à une dose volumique d'application de 500 l/ha et contenant la matière active à la concentration désirée.
(§4) La bouillie a été préparée de la même manière qu'à l'exemple A.
(§5) Les pots traités sont ensuite placés dans des bacs destinés à recevoir l'eau d'arrosage, en subirrigation, et maintenus pendant 24 jours à température ambiante sous 70 % d'humidité relative.
(§6) Au bout de 24 jours, on mesure un pourcentage (D) de destruction du nombre de pieds dans le pot traité par rapport au nombre de plantes dans les pots non traités (témoin). On mesure, sur les plantes traitées restantes, le pourcentage de réduction de taille (RT) par rapport aux plantes témoin.
(§7) Le pourcentage de volume foliaire non détruit par le produit est donc donné par la formule : [formula]
(§8) Cette valeur A est transformée en notation de 0 à 5 selon l'échelle suivante :
(§9) Ainsi, un produit est jugé comme sélectif vis à vis de la culture lorsque la valeur A notée est de 0 ou 1.
(§10) Les résultats obtenus sont présentés dans l'exemple C pour des doses d'application comprises entre 0,5 et 4 kg de matière active par hectare selon les produits.

For data set [2], the system named is Oryza sativa. The data set is described as above. Particulars: crop (Riz), dose 4 kg/ha, 24 days, score 0-5, 0 or 1 = selective.
Source text: as §1, §2, §3, §4, §5, §6, §7, §8, §9, §10

The test system of data set [3] is Ipomea pupurea. The data set is described as above. As to conditions: 4000 g/ha, 576 h.
Source text: as §1, §2, §3, §4, §5, §6, §7, §8, §9, §10

Data set [4] deals with Zea mays. The data set is described as above. As to conditions: crop (Maïs), dose 4 kg/ha, 24 days, score 0-5, 0 or 1 = selective.
Source text: as §1, §2, §3, §4, §5, §6, §7, §8, §9, §10

Data set [5] deals with Sesbania exaltata. Described as above. Particulars: 4000 g/ha, 576 h.
Source text: as §1, §2, §3, §4, §5, §6, §7, §8, §9, §10

Data set [6] has as its system Sinapis alba. Described as above. Particulars: 4000 g/ha, 576 h.
Source text: as §1, §2, §3, §4, §5, §6, §7, §8, §9, §10

Data set [7] concerns Xanthium pennsylvanicum. The data set is described as above. Particulars: 4000 g/ha, 576 h.
Source text: as §1, §2, §3, §4, §5, §6, §7, §8, §9, §10

Data set [8] has as its system Solanum nigrum. The data set is described as above. Particulars: 4000 g/ha, 576 h.
Source text: as §1, §2, §3, §4, §5, §6, §7, §8, §9, §10

The test system of data set [9] is mauvaises herbes. Nature of the data set: Procedure 1 b): weed control, pre-emergence application. As to conditions: 4000 g/ha (procédé 1B), visual rating 17 to 20 days after spraying, vs control pots. The text has this:
(§11) Des quantités appropriées des composés d'essai ont été dissoutes dans de l'acétone pour obtenir des solutions équivalant à des taux d'application de 250, 1000 ou 4000 g de composé d'essai par hectare (g/ha).
Des graines de mauvaises herbes ont été semées à la surface de compost de mise en pot John Innes N°1 (7 parties par volume de terre végétale stérilisée, 3 parties en volume de gravier fin) dans des pots en matière plastique de 70 mm de côté et 75 mm de profondeur. Les quantités de graines par pot étaient les suivantes :
Les composés de la présente invention ont été appliqués aux graines non recouvertes de la manière décrite dans le paragraphe (a) ci-dessus et ces graines ont été recouvertes avec 25ml de sable liant après pulvérisation. Un seul pot de chaque espèce de mauvaise herbe a été attribué à chaque traitement, en association avec des témoins n'ayant pas subi de pulvérisation et des témoins ayant subi une pulvérisation avec de l'acétone seule. Après traitement, les pots ont été maintenus dans une serre et ont été arrosés par aspersion. L'évaluation visuelle de l'activité de destruction des mauvaises herbes a été effectuée 17 à 20 jours après pulvérisation. Les résultats ont été exprimés par le pourcentage de réduction de croissance ou de mortalité des mauvaises herbes, comparativement aux plantes présentes dans les pots témoins.

The subject of data set [10] is mauvaises herbes. As to conditions: post-emergence.
Source text: as §11
Des espèces de mauvaises herbes ont été cultivées, puis transplantées au stade de jeunes plants de semis dans du compost de mise en pot John Innes N°1 dans des pots en matière plastique de 70 mm de côté et 75 mm de profondeur, sauf en ce qui concerne Avena fatua, qui a été semée directement dans le pot d'essai et n' a pas été transplantée. Puis les plantes ont été cultivées dans la serre jusqu'à ce qu'elles soient prêtes à subir une pulvérisation avec les composés d'essai. Le nombre de plantes par pot et la croissance de la plante au moment de la pulvérisation étaient les suivantes :
Les composés d'essai ont été appliquées aux plantes de la manière décrite dans le paragraphe (a) ci-dessus. Un seul pot de chaque espèce de mauvaises a été attribué à chaque traitement, en association avec des témoins n'ayant pas subi de pulvérisation et des témoins ayant subi une pulvérisation avec de l'acétone seule. Après pulvérisation, les pots ont été arrossés par aspersion, en commençant 24 heures après pulvérisation. L'évalutation visuelle de la lutte contre la croissance des mauvaises herbes a été effectuée 17 à 20 jours après pulvérisation. Les résultats ont été exprimés en pourcentage de réduction de croissance ou de mortalité des mauvaises herbes, comparativement aux plantes présentes dans les pots témoins.

Read-outs that look alike come from different tables or passages of the source. A value given as a limit tells only on which side of the number the result lay.
For ACTIVITE HERBICIDE DE POST LEVEE O R Y in this document: ranges in brackets are in %.
For ACTIVITE HERBICIDE DE POST LEVEE T R Z in this document: ranges in brackets are in %.
For ACTIVITE HERBICIDE DE POST LEVEE Z E A in this document: ranges in brackets are in %.

Regarding `CCOC(=O)c1cccnc1-c1nc(-c2ccccc2)nn1S(=O)(=O)N(C)C` [compound 19], the “ACTIVITE HERBICIDE DE POST LEVEE T R Z” value in [1] was 0 (90 à 100). Moreover, in data set [2], the “ACTIVITE HERBICIDE DE POST LEVEE O R Y” value was 0 (90 à 100). Besides, the “ACTIVITE HERBICIDE DE POST LEVEE I P O” value in [3] is given as 4 (10 à 30). Also, in data set [4], the “ACTIVITE HERBICIDE DE POST LEVEE Z E A” value is given as 0 (90 à 100). Besides, the “ACTIVITE HERBICIDE DE POST LEVEE S E S” value in data set [5] is 5 (O à 10). The “ACTIVITE HERBICIDE DE POST LEVEE S I N” value in data set [6] is 5 (O à 10). Further, in data set [7], the “ACTIVITE HERBICIDE DE POST LEVEE X A N” value is 2 (50 à 70). The “ACTIVITE HERBICIDE DE POST LEVEE S O L” value in data set [8] is on record as 5 (O à 10).
In the case of `CN(C)S(=O)(=O)n1c(-c2ncccc2C(=O)O)nc2cc(OC(F)(F)F)ccc21` [compound 92], the “réduction de la croissance d'une ou plusieurs des espèces de mauvaises herbes” value in data set [9] and in data set [10] was ≥ 90% each time.
Turning to `CN(C)S(=O)(=O)n1c(-c2ncccc2C(=O)OCC(F)(F)F)nc2ccccc21` [compound 100], the “réduction de la croissance d'une ou plusieurs des espèces de mauvaises herbes” value in data set [9] and in [10] was ≥ 90% throughout.
As for `C=CCOC(=O)c1cccnc1-c1nc2ccccc2n1S(=O)(=O)N(C)C` [compound 101], the “réduction de la croissance d'une ou plusieurs des espèces de mauvaises herbes” value in data set [9] and in data set [10] was ≥ 90% in each case.

(Values after EP0429372A1, “2-Azolyl nicotinate derivatives as herbicides” (RHONE-POULENC AGROCHIMIE, priority 1989, dated 1991).)
